# Laboratory results as given in patent publication US20190231785A1, “PHOSPHODIESTERASE INHIBITOR TREATMENT” (Cyrano Therapeutics, Inc., priority 2012, published 2019).
# Legend:
# cAMP = test: Parotid saliva cAMP before and after oral theophylline (Example 2); assay type: in vivo, human; details: for parotid saliva cAMP: mean ± SEM
# Description: Parotid saliva was collected from each patient by application of a Lashley cup over Stensen's duct with lingual stimulation by placement of concentrated lemon juice. Saliva was collected in plastic tubes and stored at −20° C. until assayed. cAMP and cGMP were measured in saliva by a sensitive 96 plate spectrophotometric assay (R&D Systems, Minneapolis, Minn.).
# All patients were placed in a fixed design open label clinical trial with treatment with oral theophylline. Treatment consisted of fixed treatment periods of two-eight months with sequential doses of the drug at 200 mg, 400 mg and 600 mg. At termination of each of these intervals, patients returned to study site for reevaluation. At the end of each interval subjective responses to treatment were measured with a modification of the 0-100 scale previously used (vs). Subjective responses to treatment were graded on a sliding scale from −100-0-+100 with patients recording improvement (+0-+100), no improvement (0) or worsening (0-−100) of their overall smell function. If overall smell function improved ≥5% they were considered to improve clinically (1). If smell function improved <5% they were considered not to improve (1). At the end of each interval subjective measurements of smell function, measurements of DT, RT, ME and H and measurements of parotid saliva for levels of cAMP and cGMP were obtained. In addition, blood plasma was obtained by venipuncture, placed in ice into zinc free tubes which contained 100 mg zinc free heparin, centrifuged at 3000 rpm for 10-20 min, the plasma transferred to plastic PCR tubes and stored at −20° C. until assayed. Theophylline was assayed by a fluorescence polarization assay (Abbott, Chicago, Ill.), as previously described.
# Data for the cyclic nucleotides from these 31 patients was not analyzed until the entire study of the 312 patients in Example 1 was assembled and analyzed in its entirety. After completion of these analyses, all data for parotid saliva cAMP and cGMP from all patients in whom salivary cAMP and cGMP were obtained were assembled. Levels of salivary cyclic nucleotides varied widely. Initially, without external criteria, there was no way to understand these disparate data. […] In a similar manner, measurements of each patient's plasma theophylline level at each dosage of theophylline (at 200 mg, 400 mg, 600 mg of theophylline) were categorized. The two patient groups were also analyzed post hoc with respect to type of smell loss and etiology of smell loss.
# [1] = tested on: patients with hyposmia and hypogeusia; test: Subjective changes in smell and taste function by questionnaire, scale 0 to 100 (Example 8); assay type: in vivo, human; details: oral 200 to 800 mg/d; of 10 patients
# Description: Subjective changes in smell and taste function under each study condition were measured by questionnaire before measurements of smell or taste function. Responses were graded on a scale from 0 to 100, with 0 reflecting no subjective response in overall sensory function; 100, return to normal sensory function; and values between 0 and 100 intermediate responses. Overall sensory function was defined as the ability to smell all odors and identify all tastants, although response intensity varied.
# Values for the oral trial were taken from the last measurements made before discontinuation of oral drug treatment and before initiation of the intranasal trial. This period varied from 2 to 12 months after oral treatment initiation and reflected the maximal improvement in sensory function each patient experienced.
# asthmatic patients = test: sGaw after dry powder inhalation, dose escalating single blind study (Examples 5 and 6); details: 2 mg theophylline
# Description: (§1) To test this theory, asthmatic patients are enrolled in a dose escalating single blind study. On arrival to the clinic, subjects are allowed to rest for 20 minutes before baseline measurements of FEV1 (six recordings) and sGaw (five recordings) are made. Subjects receive a dry powder dispenser loaded with a dose of 2 mg theophylline or a dry powder carrier. […] After each inhalation, measurements of sGaw are made at 1, 3, 5, 10, 15, 20, 25, and 30 minutes.
# On completion of the last recording, subjects inhale a 200 μg dose of salbutamol from a metered inhaler and a further measurement of sGaw is made after 15 minutes. Subjects are also monitored for coughing and are questioned about the taste of the drug.
# as §1, with “Asthmatic patients” for “To test this theory, asthmatic patients”, “of 1” for “of 2”, “mg IBMX formulated as a dry powder” for “mg theophylline”
# On completion of the last recording, subjects inhale a 200 μg dose of salbutamol from a metered inhaler and a further measurement of sGaw mad after 15 minutes. Subjects are also be monitored for coughing and are questioned about the taste of the drug.
compound,measurement,setting,value
Cn1c(=O)c2[nH]cnc2n(C)c1=O [theophylline],increase of saliva cAMP above baseline,"cAMP; improved patients, oral 200 mg, not significant",10%
same,increase of saliva cAMP over baseline,"cAMP; improved patients, oral 400 mg, not statistically significant",40%
same,increase of saliva cAMP above initial values,"cAMP; improved patients, oral 600 mg, significant",67%
same,parotid saliva cAMP,"cAMP; patients with improved smell function, oral 200 mg (16 patients)",0.96 ± 0.13 pmol/mL
same,parotid saliva cAMP,"cAMP; patients with unimproved smell function, oral 200 mg (9 patients)",0.78 ± 0.26 pmol/mL
same,parotid saliva cAMP,"cAMP; patients with unimproved smell function, oral 400 mg (5 patients)",0.95 ± 0.26 pmol/mL
same,parotid saliva cAMP,"cAMP; patients with unimproved smell function, oral 600 mg (9 patients)",0.56 ± 0.21 pmol/mL
same,patients reporting no improvement,[1],4 patients
same,increase in sGaw compared with 200 μg salbutamol,asthmatic patients,comparable to that produced by salbutamol
same,sGaw above the baseline measurement after 30 minutes,asthmatic patients,20%
same,taste and coughing of the dry powder formulation,asthmatic patients,without the unpleasant taste or the induction of coughing
same,time until sGaw baseline is reached,asthmatic patients,1 h
